Assay results as given in patent publication US20150355456A1, “ELECTROWETTING FLUIDS” (MERCK PATENT GMBH, priority 2013, published 2015).

How the values were obtained:
[1] = Solubility from absorbance of a filtered over-saturated dye sample; format: physicochemical; conditions: concentration extrapolated via calibration curve and Beer Lambert Law
Protocol: (§1) a) Dye mixtures using the novel dyes are prepared to obtain neutral black samples that can be used in EWD. b) Solubility is measured by filtering an over-saturated sample of dissolved dye, measuring the resulting absorbance value, and extrapolating the concentration using a calibration curve and Beer Lambert Law (Absorbance=∈cl, where ∈ is the extinction coefficient of the material, calculated from a calibration curve, c is concentration, and l is the path length of the measurement). c) The absorbance is measured using a Hitachi U3310 spectrophotometer with a 5 micron path length under a single pass transmission measurement condition. d) The impact of the dye on the electrical properties is measured by comparing the dielectric constant of a series of formulations with increasing dye content. There is a linear relationship between dye concentration and dielectric constant, the gradient of which is indicative of the polarisability of the dye. This gradient value is denoted as an ‘alpha value’. A low alpha value indicates a smaller change in dielectric constant as dye concentration increases, and is desirable. High alpha values indicate that the dye has a large impact on the dielectric constant of the solvent, which will likely have a negative impact on the behaviour of the fluid in an electrowetting display pixel.

[2] = Extinction coefficient from calibration curve; format: physicochemical; conditions: extinction coefficient calculated from calibration curve
[3] = Alpha value: gradient of dielectric constant against dye concentration (polarisability); format: physicochemical; conditions: gradient of dielectric constant vs dye concentration; low value desirable
Protocol: as §1

| Structure (SMILES) | melting point [°C] | Solubility % [1] [%] | εmax [2] | Alpha value [3] |
| --- | --- | --- | --- | --- |
| CCCCCCCCCCCCCC1(C)Nc2cccc3c(/N=N/c4ccc(/N=N/c5ccc(CCCC)cc5)c5ccccc45)ccc(c23)N1 (stereo not shown) [Dye 1, 6-((E)-(4-((E)-(4-Butylphenyl)diazenyl)naphthalen-1-yl)diazenyl)-2-methyl-2-tridecyl-2,3-dihydro-1H-perimidine] | 79 to 81 | 0.22 | – | – |
| CCCCCCCCCCCCCC1(C)N(CCCCCCCC)c2cccc3c(/N=N/c4ccc(/N=N/c5ccc(CCCC)cc5)c5ccccc45)ccc(c23)N1CCCCCCCC (stereo not shown) [Dye 2, 6-((E)-(4-((E)-(4-butylphenyl)diazenyl)naphthalen-1-yl)diazenyl)-2-methyl-1,3-dioctyl-2-tridecyl-2,3-dihydro-1H-perimidine] | – | 19.53 | 40107 | 2.9360 |
| CCCCc1ccc(/N=N/c2cc(OCC(CC)CCCC)c(/N=N/c3ccc(N(CC(CC)CCCC)CC(CC)CCCC)cc3C)cc2C)cc1 (stereo not shown) [Dye 14, 4-((E)-(4-((E)-(4-butylphenyl)diazenyl)-2-(2-ethylhexyloxy)-5-methylphenyl)diazenyl)-N,N-bis(2-ethylhexyl)-3-methylaniline] | – | 28.66 | 38954 | – |
